Measured values taken from ChEMBL document CHEMBL3714720, “Inhibiting G-protein coupled receptor 6 kinase polypeptides” (2014).

Target: G protein-coupled receptor kinase 6 (Homo sapiens, UniProt P43250)
Assay: Inhibition of human recombinant full-length GST-tagged human GRK6 using peptide substrate peptide-216 incubated for 7 hrs

Chain of G protein-coupled receptor kinase 6 (P43250 whole entry): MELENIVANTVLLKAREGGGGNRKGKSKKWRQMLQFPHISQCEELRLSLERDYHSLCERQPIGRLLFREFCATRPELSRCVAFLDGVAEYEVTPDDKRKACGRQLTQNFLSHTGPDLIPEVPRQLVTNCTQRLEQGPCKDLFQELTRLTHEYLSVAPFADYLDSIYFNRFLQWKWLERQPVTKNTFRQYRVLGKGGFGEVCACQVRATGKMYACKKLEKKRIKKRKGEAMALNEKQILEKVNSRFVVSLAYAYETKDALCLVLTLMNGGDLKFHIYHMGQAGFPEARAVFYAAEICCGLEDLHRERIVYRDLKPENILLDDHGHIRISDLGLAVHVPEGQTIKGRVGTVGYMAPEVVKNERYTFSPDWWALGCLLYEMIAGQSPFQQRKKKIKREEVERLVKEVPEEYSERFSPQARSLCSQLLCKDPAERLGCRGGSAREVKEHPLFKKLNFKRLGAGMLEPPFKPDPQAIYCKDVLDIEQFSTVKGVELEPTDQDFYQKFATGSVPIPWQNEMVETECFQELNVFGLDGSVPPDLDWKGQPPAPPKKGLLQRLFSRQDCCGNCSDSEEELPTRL

Row | IC50 [µM] | Structure (SMILES)
1 | > 100 | COc1ccc(-c2nnc(SCC(=O)O)[nH]2)c(OC)c1C
2 | > 100 | COc1ccc(-c2nnc(SCC(=O)O)[nH]2)c(OC)c1OC
3 | 3.58 | Cc1cccc(Oc2ccc(-c3nnc(SCC(=O)O)[nH]3)cc2[N+](=O)[O-])c1
4 | > 74 | O=C(O)CSc1nnc(-c2cccc(C(=O)O)c2)[nH]1
5 | 77.5 | COc1ccc([N+](=O)[O-])cc1-c1nnc(SCC(=O)O)[nH]1
6 | > 100 | COc1c(F)cccc1-c1nnc(SCC(=O)O)[nH]1
7 | 3.3 | COc1cc(-c2nnc(SCC(=O)O)[nH]2)cc(F)c1O
8 | > 100 | O=C(O)CSc1nnc(-c2cc(C(=O)O)ccc2O)[nH]1
9 | > 100 | COc1cc([N+](=O)[O-])ccc1-c1nnc(SCC(=O)O)[nH]1
10 | > 100 | O=C(O)CSc1nnc(-c2ccccc2N2CCOCC2)[nH]1
11 | 1.05 | COc1ccc(-c2nnc(SCC(=O)O)[nH]2)cc1[N+](=O)[O-]
12 | > 100 | COc1cc(O)cc(OC)c1-c1nnc(SCC(=O)O)[nH]1
13 | 14.1 | O=C(O)CSc1nnc(-c2cc([N+](=O)[O-])ccc2O)[nH]1
14 | > 100 | COc1cccc(O)c1-c1nnc(SCC(=O)O)[nH]1
15 | > 100 | COc1cc(-c2nnc(SCC(=O)O)[nH]2)c([N+](=O)[O-])cc1OC
16 | > 100 | CC(=O)CSc1nnc(-c2cccc(C)c2)[nH]1
17 | 10.3 | COc1ccc(NC(c2ccccn2)c2ccc3cccnc3c2O)cc1 (centres undefined)
18 | > 100 | O=C(O)CSc1nnc(-c2ccccc2OCCN2CCCC2)[nH]1
19 | 0.751 | Cc1ccc(-c2nnc(SCC(=O)O)[nH]2)cc1[N+](=O)[O-]
20 | > 100 | Cc1cccc(-c2nnc(SCCC(=O)O)n2C)c1
21 | > 100 | CN(C)CCCOc1ccccc1-c1nnc(SCC(=O)O)[nH]1
22 | > 100 | COc1ccc(-c2nnc(SCC(=O)O)[nH]2)c(Cl)c1OC

Row | IC50 [µM] | Structure (SMILES)
23 | 4.52 | COc1cc(-c2nnc(SCC(=O)O)[nH]2)ccc1F
24 | > 100 | O=C(O)COc1ccccc1-c1nnc(SCC(=O)O)[nH]1
25 | > 70 | O=C(O)CSc1nnc(-c2cccc([N+](=O)[O-])c2O)[nH]1
26 | > 100 | Cc1cccc(-c2n[nH]c(SCC(N)=O)n2)c1
27 | > 100 | O=C(O)CSc1nnc(-c2ccccc2C(=O)O)[nH]1
28 | > 100 | NC(=O)c1ccccc1-c1nnc(SCC(=O)O)[nH]1
29 | > 100 | COc1cccc(OC)c1-c1nnc(SCC(=O)O)[nH]1
30 | > 100 | CN1CCN(c2ccc(-c3nnc(SCC(=O)O)[nH]3)c(F)c2)CC1
31 | > 100 | COc1ccc(OC)c(-c2nnc(SCC(=O)O)[nH]2)c1
32 | > 100 | Cc1cccc(-c2nnc(SCCC(=O)O)[nH]2)c1
33 | > 100 | COC(=O)CSc1nnc(-c2cccc(C)c2)[nH]1
34 | > 100 | COC(=O)c1ccccc1-c1nnc(SCC(=O)O)[nH]1
35 | > 100 | Cc1cccc(-c2nnc(SCC(=O)N(C)C)[nH]2)c1
36 | > 60 | Cc1coc(-c2ccccc2NS(=O)(=O)c2ccc(S(=O)(=O)N3CCCCCC3)cc2)c1
37 | > 100 | CN(C)c1ccc(-c2nnc(SCC(=O)O)[nH]2)cc1
38 | > 100 | Cc1cccc(-c2nnc(SCC(=O)O)n2C)c1
39 | > 100 | COc1cc(OC)c(-c2nnc(SCC(=O)O)[nH]2)cc1OC
40 | > 100 | COc1cccc(-c2nnc(SCC(=O)O)[nH]2)c1OC
41 | > 100 | COc1cc(N(C)C)ccc1-c1nnc(SCC(=O)O)[nH]1
42 | > 100 | Cc1cccc(-c2nnc(SC(C)C(=O)O)n2C)c1 (centres undefined)
43 | 34.8 | COc1cc([N+](=O)[O-])cc(-c2nnc(SCC(=O)O)[nH]2)c1O
44 | > 100 | COc1cccc(-c2nnc(SCC(=O)O)[nH]2)c1OCc1ccccc1
